Experimental data reported in article PMC6680510, “Benzotriazine Di-Oxide Prodrugs for Exploiting Hypoxia and Low Extracellular pH in Tumors” (Molecules, 2019).
Where two headings read alike, the source gives them in different places.

How the values were obtained:
SiHa cells [1] = experiment: IC50 assay (inhibition of proliferation, 4 h exposure, SRB); details: SiHa
Procedure: Cells were seeded in 96-well plates (SiHa or FaDu 1500 cells/well, UT-SCC-74B 800 cells/well) in 100 μL. After incubation for 2 h, the drugs were added in 50 μL of the same titrated medium at 3× the final concentration to duplicate the wells. After a further 4 h the plates were checked for drug precipitation using a phase contrast microscope, then drugs were removed by aspirating and washing with the standard (pH 7.4) medium, then aspirating again and adding 150 μL of the medium. Cultures were then grown for 5 days before staining with sulphorhodamine B and measuring absorbance, with the estimation of IC50 values using 4-parameter logistic regression, as previously carried out.
The medium and plasticware was equilibrated in the chamber for 3 days prior to use. In the anoxia experiments, FaDu cells were plated in poly-L-lysine coated plates (Corning Cat # 356461) to improve attachment.
Cells were subsequently grown under standard cell culture conditions (oxia, pHe 7.4) for 5 days before staining with sulforhodamine B (SRB). […] (B) SN30000 (2). (C) BTO acid 4a. Values are means and errors are ranges for duplicate cultures in a single experiment. Fitted curves are 4-parameter logistic regressions. PCR = pH cytotoxicity ratio. ACR = anoxia cytotoxicity ratio. TMR = tumor microenvironment ratio.

FaDu cells = experiment: as above; type: cell-based
[2] = One-electron reduction potentials by pulse radiolysis; type: physicochemical; details: pH 7.0, equilibrium with redox indicator shown in square brackets
Procedure: One-electron reduction potentials (E^0′) were determined from the redox equilibria with methylviologen, MV^2+, (E^0′ = […], [34]), dimethyldiquat, V21^2+, (E^0′ = […], [35]), or triquat, TQ^2+, (E^0′ = −548 ± 7 mV [34]). […] Substituting the 3-alkanoic sidechain with the 3-aminoalkanoic sidechain on the BTO 1,4-dioxide lowers the E^0′, as does the addition of the cyclopentane ring. The combined effect is seen for 10a, where the E^0′ value is −565 mV, which is expected to be too low for significant bioreduction under hypoxia.
Time-resolved optical absorption and kinetic studies were carried out using the University of Auckland’s 4 MeV linear accelerator, which has been previously described. The one-electron reduction potentials of the compounds (A) and couple E^0′(A/A^−), versus normal hydrogen electrode, were determined at pH 7.0 (2.5 mM phosphate) by establishing redox equilibria within 50 μs between three mixtures of one-electron reduced A and the viologen reference compounds, MV^2+, TQ^2+ and V21^2+. The determined equilibrium constants were used to calculate the ΔE values using the Nernst equation, correcting for ionic strength effects, as described in the literature.

SiHa cells [3] = system: SiHa cells
SiHa cells [4] = experiment: Metabolism and uptake of ester 4b in anoxic single cell suspensions; type: in vitro ADME; details: anoxic SiHa suspensions after addition of 4b (150 μM)
Source text: If the anionic sidechain of the BTO acids results in low intracellular concentrations, with reductive metabolism occurring largely at the cell surface, the corresponding esters would be expected to provide improved delivery to the intracellular compartment (consistent with their higher cytotoxic potencies, as noted in Section 2.5). To test this, we compared the metabolism of ester 4b (Figure 7A) with its corresponding acid 4a (Figure 7B) by monitoring extracellular concentrations in anoxic SiHa suspensions. The rates of metabolism of both compounds were unaffected by pHe, consistent with the results for 4a in Figure 5B. The ester was metabolized more rapidly than the acid, with only a trace of acid 4a detected transiently as an extracellular metabolite (Figure 7A). The major metabolites were the less polar 1-oxide, 15a, and the 1-oxide of the ester, 16a. In separate experiments with higher initial concentrations of 4b, 15a was again the main extracellular metabolite (Figure 7C, left). […] Compound 4b itself was not detected in the intracellular samples, presumably reflecting a lack of retention in cells and the very low intracellular volume, which will compromise analytical sensitivity (only 2 × 10^6 cells were collected for each analysis in this experiment).
Figure 7 Metabolism of BTO ester 4b and the corresponding acid 4a by anoxic SiHa single cell suspensions (2 × 10^6 cells/mL). (A) Extracellular concentrations following the addition of 4b (50 μM). (B) Extracellular concentrations following the addition of 4a (50 μM). (C) Extracellular (left) and intracellular (right) concentrations following the addition of 4b (150 μM). Values are means and errors are SEM for 3 replicate cultures.

[5] = system: reduction of BTOs to their N-1-oxides by SiHa cells; experiment: WST-1 inhibition of anoxic reduction of BTOs to N-1-oxides; type: cell-based
Source text: One possibility for this is that the BTO acids are reduced to the 1-oxides by an extracellular one-electron reductase. To test this, we evaluated whether the cell-excluded disulfonic acid tetrazolium salt WST-1 could compete with BTO acids for one-electron reduction. WST-1 is a known electron acceptor for one-electron reduction by the plasma membrane electron transport system (PMET) and is widely used as a cell viability assay, although the latter application uses 1-methoxyphenazine methylsulphate (mPMS) as an electron transfer intermediate. Given the possibility that mPMS could cross the plasma membrane itself, we used WST-1 without mPMS to ensure that the electron donor is a cell surface reductase.
The log-phase cells were trypsinized and the pellets were transferred to the anaerobic chamber and resuspended in equilibrated αMEM + 5% FBS at pH 7.4 and plated (10^5 cells in 100 μL/well for experiments with WST1, otherwise 2 × 10^5 cells/well). After incubation at 37 °C for 2 h, 20 μL was replaced with the anoxic medium containing 5× the final concentrations of test compounds with or without WST-1 (1 mM, Toronto Research Chemicals). A cell-free medium used as a control to check for reduction in the anoxic medium. Cultures were mixed gently, incubated for a further 2 h, then the extracellular medium was removed and 200 μL of ice-cold MeOH was added to the monolayers. The MeOH extract was transferred to the medium sample (thus combining the intracellular and extracellular samples). The pooled samples (combining the intracellular and extracellular samples) were removed from anoxic chamber, then centrifuged (13000g, 30 s) and frozen for subsequent HPLC analysis. Cell-free wells were used for single-point calibration of the parent compounds and 1-oxides in each experiment.
Figure 8 Inhibition of reduction of BTOs to their N-1-oxides by the cell-excluded electron acceptor WST-1. SiHa cells were seeded in 96-well plates at 10^6 cells/mL and exposed to the compounds (50 μM) with the indicated concentrations of WST-1 under anoxia for 2 h. Total (pooled intracellular and extracellular) amounts of the 1-oxide metabolites were determined by HPLC. Values are mean and SEM for two experiments with triplicate cultures at each concentration.

[6] = Solubility in AlphaMEM + 5% FBS, pH 7.4; details: culture medium (AlphaMEM + 5% FBS), pH 7.4, plasma or biological fluid, thermodynamic from solid
[7] = reference viologen; cited from earlier work

3-((2-Carboxyethyl)amino)-7,8-dihydro-6H-indeno[5,6-e][1,2,4]triazine 1,4-Dioxide [Compound 11a]
TMR (overall TME ratio = oxic IC50 pHe 7.4/anoxic IC50 pHe 6.5) (SiHa cells [1]): 15.9 ± 1.6 | PCR Anoxic (IC50 at pHe 7.4/IC50 at pHe 6.5) (SiHa cells [1]; anoxic): 4.94 ± 1.14 | PCR oxic (IC50 at pHe 7.4/IC50 at pHe 6.5) (SiHa cells [1]; oxic): 4.18 ± 0.21 | IC50 (SiHa cells [1]; read-out: Anoxic IC50, pHe 6.5, 4 h, anoxic): 145 ± 13 µM | IC50 (SiHa cells [1]; read-out: Anoxic IC50, pHe 7.4, 4 h, anoxic): 714 ± 152 µM | IC50 (SiHa cells [1]; read-out: Oxic IC50, pHe 6.5, 4 h, oxic): 551 ± 16 µM | IC50 (SiHa cells [1]; read-out: Oxic IC50, pHe 7.4, 4 h, oxic): 2300 ± 92 µM | TMR (oxic IC50 pHe 7.4/anoxic IC50 pHe 6.5) (FaDu cells): >1 | PCR Anoxic (IC50 at pHe 7.4/IC50 at pHe 6.5) (FaDu cells; anoxic): >1 | ACR (oxic IC50/anoxic IC50) (FaDu cells; pHe 6.5): > 1 | IC50 (FaDu cells; pHe 6.5, 4 h, anoxic, read-out: Anoxic IC50): 3810 ± 390 µM | IC50 (FaDu cells; pHe 6.5, 4 h, oxic, read-out: Oxic IC50): > 4000 µM | IC50 (FaDu cells; pHe 7.4, 4 h, anoxic, read-out: Anoxic IC50): > 4000 µM | IC50 (FaDu cells; pHe 7.4, 4 h, oxic, read-out: Oxic IC50): > 4000 µM | E^0′ one-electron reduction potential [2]: −481 ± 10 [MV^2+] mV | Ci ratio (Ci at pHe 6.5/Ci at pHe 7.4) (SiHa cells [3]): 4.4 ± 1.2 fold | Ci/Ce, pHe 6.5 Obs 5 min (SiHa cells [3]): 0.17 ± 0.02 | Ci/Ce, pHe 6.5 Obs 60 min (SiHa cells [3]): 0.29 ± 0.02 | Ci/Ce, pHe 7.4 Obs 5 min (SiHa cells [3]): <0.1 | Ci/Ce, pHe 7.4 Obs 60 min (SiHa cells [3]): <0.1

O=C(O)CCc1nc2ccccc2[n+]([O-])n1 [Compound 15a, 3-(2-Carboxyethyl)benzo[e][1,2,4]triazine 1-Oxide]
melting point: 152 to 154 °C (dec.) | Intracellular concentration, fold lower than that of acid 4a (SiHa cells [4]): approximately 10 fold

O=[N+]([O-])c1ccc(-[n+]2nc(-c3ccc(S(=O)(=O)O)cc3S(=O)(=O)[O-])nn2-c2ccc(I)cc2)cc1 [WST-1]
IC50 ([5]; read-out: IC50 for inhibition of anoxic reduction of 4a to N-1-oxide 15a, substrate 4a 50 μM, anoxia 2 h): 7.05 µM | IC50 ([5]; read-out: IC50 for inhibition of anoxic reduction of 7a to N-1-oxide 15d, substrate 7a 50 μM, anoxia 2 h): 14.3 µM | IC50 ([5]; substrate SN30000 50 μM, anoxia 2 h, read-out: IC50 for inhibition of metabolic reduction of SN30000): > 1000 µM | IC50 ([5]; substrate TPZ 50 μM, anoxia 2 h, read-out: IC50 for inhibition of metabolic reduction of TPZ): > 1000 µM

COC(=O)CCc1n[n+]([O-])c2ccccc2[n+]1[O-] [Compound 4b, 3-(3-Methoxy-3-oxopropyl)benzo[e][1,2,4]triazine 1,4-Dioxide]
IC50 (SiHa cells [1]; Homo sapiens, 4 h, read-out: Anoxic IC50, SiHa, pHe 6.5, 4 h, anoxic): 1.8 ± 0.46 µM | IC50 (SiHa cells [1]; Homo sapiens, 4 h, read-out: Anoxic IC50, SiHa, pHe 7.4, 4 h, anoxic): 1.4 ± 0.1 µM | IC50 (SiHa cells [1]; Homo sapiens, 4 h, read-out: Oxic IC50, SiHa, pHe 6.5, 4 h, oxic): 26.3 ± 7.1 µM | IC50 (SiHa cells [1]; Homo sapiens, 4 h, read-out: Oxic IC50, SiHa, pHe 7.4, 4 h, oxic): 34.4 ± 3.5 µM | TMR (overall TME ratio = oxic IC50 pHe 7.4/anoxic IC50 pHe 6.5) (SiHa cells [1]): 19.1 ± 5.3 | PCR Anoxic (IC50 at pHe 7.4/IC50 at pHe 6.5) (SiHa cells [1]; anoxic): 0.78 ± 0.21 | PCR oxic (IC50 at pHe 7.4/IC50 at pHe 6.5) (SiHa cells [1]; oxic): 1.31 ± 0.38 | ACR (anoxic cytotoxicity ratio = oxic IC50/anoxic IC50) (SiHa cells [1]; pHe 6.5): 14.5 ± 5.4 | ACR (anoxic cytotoxicity ratio = oxic IC50/anoxic IC50) (SiHa cells [1]; pHe 7.4): 24.6 ± 3.1 | solubility [6]: 17.7 mM | TMR (oxic IC50 pHe 7.4/anoxic IC50 pHe 6.5) (FaDu cells): 42.3 ± 2.6 | IC50 (FaDu cells; Homo sapiens, 4 h, pHe 6.5, 4 h, anoxic, read-out: Anoxic IC50): 3.3 ± 0.11 µM | IC50 (FaDu cells; Homo sapiens, 4 h, pHe 6.5, 4 h, oxic, read-out: Oxic IC50): 98 ± 12 µM | IC50 (FaDu cells; Homo sapiens, 4 h, pHe 7.4, 4 h, anoxic, read-out: Anoxic IC50): 3.2 ± 0.38 µM | IC50 (FaDu cells; Homo sapiens, 4 h, pHe 7.4, 4 h, oxic, read-out: Oxic IC50): 140 ± 7 µM | PCR Anoxic (IC50 at pHe 7.4/IC50 at pHe 6.5) (FaDu cells; anoxic): 0.97 ± 0.12 | PCR oxic (IC50 at pHe 7.4/IC50 at pHe 6.5) (FaDu cells; oxic): 1.43 ± 0.19 | ACR (oxic IC50/anoxic IC50) (FaDu cells; pHe 6.5): 29.6 ± 3.8 | ACR (oxic IC50/anoxic IC50) (FaDu cells; pHe 7.4): 43.6 ± 5.7 | E^0′ one-electron reduction potential [2]: −363 ± 7 [MV^2+] mV | melting point: 89 to 91 °C | Detection in intracellular samples (SiHa cells [4]): not detected

c1cc[n+]2c(c1)-c1cccc[n+]1CCC2 [triquat, 7,8-dihydrodipyrido-[1,2-a:2′,1′-c][1,4]diazepinedium]
E^0′ of redox indicator [7]: −548 ± 7 mV
